Source: patent US3933800A, “New 3-formylrifamycin SV derivatives” (Gruppo Lepetit S.p.A., priority 1971, dated 1976)

Legend:
[1] = tested on: RNA dependent DNA polymerase of murine sarcoma virus (endogenous) and DNA dependent DNA polymerase activity of purified enzymes; assay: inhibition of murine sarcoma virus DNA polymerase (3H-dTTP incorporation); format: biochemical; conditions: at a concentration of 2-100 μg/ml or less; 60 min
Experimental: The inhibiting activity of the invention compounds has been tested on RNA dependent DNA polymerase of murine sarcoma virus (endogenous) and DNA dependent DNA polymerase activity of purified enzymes. The inhibition was tested according to the methods described by C. Gurgo et al., Nature, New Biology, 229, 111, 1971.
The effect of different concentrations of drugs on polymerase activity was determined by following 3H-dTTP (tritiated thymine deoxyriboside triphosphate) incorporation into the insoluble fraction. A typical example of the experimental procedures is the following: Isolation of virus and purification of viral polymerase
Virus was isolated and purified from murine sarcoma virus (Moloney isolate) transformed rat cells (78Al cells) and murine sarcoma virus (Harvey isolate) transformed mouse cells (MEH cells) as previously described (Green et al., Proc. Nat. Acad. Sci. USA 67. 385-393, 1970, Rokutanda et al., Nature, 227, 1026-1028, 1970). The virion polymerase was purified 20-40 fold by incubation of purified virus with 0.5% NP-40 (nonidet P-40) in 0.1 M NaCl, 0.01 M Tris buffer (pH 7.6), 0.001 M EDTA for 5 minutes at room temperature and zonal centrifugration in 15-30% sucrose gradients in 10 mM (millimoles) sodium phosphate buffer (pH 7.4), 2.5 mM MgCl2, 10 mM dithiothreitol, and 5% glycerol for 24 hours at 38.000 rpm in a Spinco SW41 rotor. The peak fractions of enzyme activity (13-17) of twenty-two fractions collected, were pooled, and stored at -70°C in 30% glycerol. DNA polymerase assay
Enzyme incubation was performed for 1 hour at 37°C in 100 μl of reaction mixture containing 40 mM Tris buffer (pH 8.0), 5mM dithiothreitol, 30 mM NaCl, 2.5 mM MgCl2, 0.1 mM daTP, dGTP, dCTP, and 10 μCi of ^3 H-dTTP (12-18 Ci/mmole) as described by Green et al., in Proc. Nat. Acad. Sci. US 67, 385-393, 1970. The reaction was terminated by the addition of 150 μ l of 1N perchloric acid. Calf thymus DNA (100 μg) were added as carrier; the radioactive DNA product was processed as described in the two papers mentioned above.
Endogenous RNA dependent DNA polymerase activity was measured after the addition of 0.01% PN-40 to purified virus at the time of assay. The DNA polymerase activity of purified viral polymerase was measured with 2 μg of poly d(A-T) as template and no NP-40. Test for inhibition by rifamycin derivatives
Rifamycin derivatives were dissolved in dimethylsulfoxide (DMSO) at a concentration of 5 mg/ml and stored at 4°C. Inhibition of the endogenous RNA dependent DNA polymerase activity was tested by adding 2 μ l of derivative appropriately diluted in DMSO or 2 μ l of DMSO (control) to the assay mixture prior to addition to disrupted virus which contained 15 to 30 μg of viral protein. Enzyme incubation was performed for 60 minutes at 37°C. Inhibition of purified enzyme was tested by pre-incubation of 2 μl of derivative of DMSO with 30 μl of enzyme (1 to 2 μg protein) for 10 minutes at 37°C; then 70 μ l of substrate mixture were added and the mixture further incubated and processed as described above.

leukemic polymerase = assay: inhibition of DNA polymerase of human leukemic blood lymphoblasts; format: biochemical; conditions: synthetic RNA template (poly rA.rU)
Text: Similar results were found by using tumor cell polymerases of human origin. In this case the inhibiting activity was studied also on normal cells polymerases to characterize a selective effect. Representative rifamycin derivatives of formula I have been evaluated for their effects on […] purified DNA polymerase isolated from (I) human normal (PHA stimulated) blood lymphocytes (2) a lymphoblast cell line (derived from a normal donor) and (3) human leukemic blood lymphoblast. Synthetic and/or native templates were used.
Leukemic lymphoblasts were isolated from the peripheral blood of patients with acute lymphocytic leukemia (ALL) by leukophoresis. The cells were washed and erythrocytes removed by hypotonic lysis. Normal lymphocytes were obtained from the peripheral blood from healthy donors after removal of granulocytes by nylon column chromatography. They were stimulated with phytohemagglutinin (PHA) for 72 hours as described before (Gallo et al., Nature, 228, 927, 1970; Gallo et al. Science, 165, 400, 1968) in order to maximize DNA polymerase activity.
Cellular DNA polymerase were extracted and purified from normal blood (PHA stimulated) lymphocytes, and leukemic blood lymphocytes and 1788 lymphoid cells by homogenization in hypotonic buffer followed by Triton X 100 and/or high salt extraction of the extraylsosomal pellet. After differential centrifugation cellular extracts were further purified by DEAE cellulose, phosphocellulose, and Sephadex G 200 column chromatography. DNA polymerase Assays
DNA polymerase assays were carried out in a final volume of 100 μ l. The assay mixture contained Tris-HCl buffer, pH 8.3, 50 mM; MgAc, 6.0 mM; dithiothretiol, 8.0 mM; NaCl, 60 mM. […]
In these cases reactions were initiated by adding enzyme to the complete reaction mixture which included the inhibitor. […] The products were collected on Millipore filter, washed extensively with 5% TCA and 1 ml. of DMSO-ethanol-0.1 M NaCl mixture (0.5:70;29.5), dried and counted in 2 ml. of BBS3 (Beckman) and 10 ml. of liquifluor (New England Nuclear) in a Packard liquid scintillation counter.

[2] = tested on: polymerase from murine leukemia virus (reverse transcriptase); assay: inhibition of polymerase from murine leukemia virus; format: biochemical; conditions: endogenous 70S RNA template
Experimental: The inhibiting effect of reverse transcriptase has been confirmed also by test on polymerase from murine leukemia virus. Murine leukemia virus RNA polymerase was prepared from TRITON X 100 disrupted virions as described by Gallo et al., Nature, New Biology, 232, 141 (1971). Virus of both Rauscher and Moloney types were previously purified by banding in the 1.16 g/ml region of a sucrose density gradient after initial low speed centrifugation to remove cellular debris and cushioning on 60% sucrose through 20% sucrose. Final concentration of virus preparation was at 10^11 particles/ml. As template endogenous 70S RNA was used.

bacteria = conditions: cited from earlier work
[3] = tested on: bacteria which had become resistant to the other rifamycins; conditions: namely rifampicin; cited from earlier work

Row | Structure (SMILES) | incorporation of 3H-dTTP relative to control tests [1] | susceptibility compared with synthetic DNA template (leukemic polymerase) | concentration giving inhibition of about 50 percent [2] [µg/mL] | antibacterial activity (bacteria) | effect against resistant bacteria [3]
1 | CCCCON=Cc1c2c(O)c3c(O)c(C)c4c(c3c1O)C(=O)C(C)(OC=CC(OC)C(C)C(OC(C)=O)C(C)C(O)C(C)C(O)C(C)C=CC=C(C)C(=O)N2)O4 (stereo not drawn) [Example 4] | less than 10% | – | – | – | –
2 | CCCCCON=Cc1c2c(O)c3c(O)c(C)c4c(c3c1O)C(=O)C(C)(OC=CC(OC)C(C)C(OC(C)=O)C(C)C(O)C(C)C(O)C(C)C=CC=C(C)C(=O)N2)O4 (stereo not drawn) [Example 5] | less than 10% | even more susceptible | 10 to 25 | – | –
3 | CCCCCCCCON=Cc1c2c(O)c3c(O)c(C)c4c(c3c1O)C(=O)C(C)(OC=CC(OC)C(C)C(OC(C)=O)C(C)C(O)C(C)C(O)C(C)C=CC=C(C)C(=O)N2)O4 (stereo not drawn) [Example 6] | less than 10% | even more susceptible | 10 to 25 | – | –
4 | COC1C=COC2(C)Oc3c(C)c(O)c4c(O)c(c(C=NOCCc5ccccc5)c(O)c4c3C2=O)NC(=O)C(C)=CC=CC(C)C(O)C(C)C(O)C(C)C(OC(C)=O)C1C (stereo not drawn) [Example 13] | less than 10% | – | – | – | –
5 | COC1C=COC2(C)Oc3c(C)c(O)c4c(O)c(c(C=NOCCCc5ccccc5)c(O)c4c3C2=O)NC(=O)C(C)=CC=CC(C)C(O)C(C)C(O)C(C)C(OC(C)=O)C1C (stereo not drawn) [Example 14] | less than 10% | even more susceptible | 10 to 25 | – | –
6 | COC1C=COC2(C)Oc3c(C)c(O)c4c(O)c(c(C=NOC(c5ccccc5)c5ccccc5)c(O)c4c3C2=O)NC(=O)C(C)=CC=CC(C)C(O)C(C)C(O)C(C)C(OC(C)=O)C1C (stereo not drawn) [Example 16] | less than 10% | – | – | – | –
7 | CON=Cc1c2c(O)c3c(O)c(C)c4c(c3c1O)C(=O)C(C)(OC=CC(OC)C(C)C(OC(C)=O)C(C)C(O)C(C)C(O)C(C)C=CC=C(C)C(=O)N2)O4 (stereo not drawn) [O-methyl] | – | – | – | good antibacterial activity | practically no effect
8 | COC1C=COC2(C)Oc3c(C)c(O)c4c(O)c(c(C=NOCCN5CCOCC5)c(O)c4c3C2=O)NC(=O)C(C)=CC=CC(C)C(O)C(C)C(O)C(C)C(OC(C)=O)C1C (stereo not drawn) [O-morpholinoethyl] | – | – | – | good antibacterial activity | practically no effect
9 | COC1C=COC2(C)Oc3c(C)c(O)c4c(O)c(c(C=NO)c(O)c4c3C2=O)NC(=O)C(C)=CC=CC(C)C(O)C(C)C(O)C(C)C(OC(C)=O)C1C (stereo not drawn) [oxime of 3-formylrifamycin SV] | – | – | – | good antibacterial activity | practically no effect
